Source: ChEMBL document CHEMBL6121008, “New series of 3-pyridyl-1,3-thiazoles: In vitro and in vivo anti-Trypanosomatidae profile, in vitro and in silico mechanism of action approach” (Eur J Med Chem, 2025)
Active and inactive are the calls of the source. No cut-off for these calls is given here.

How the values were obtained:
Trypanosoma cruzi [1] = assay: (§1) Antiparasitic activity against trypomastigote form of Trypanosoma cruzi Tulahuen expressing Escherichia coli beta-galactosidase infected in mouse L929 cells assessed as reduction in parasitic growth using CPRG as substrate pretreated with compound for 96 hrs followed by substrate addition and measured after 16 to 20 hrs by Spectrophotometric analysis; assay type: functional, organism-based
[2] = Cytotoxicity against mouse L929 cells assessed as inhibition of cell viability incubated for 96 hrs by MTT assay; assay type: toxicity, cell-based
[3] = Selectivity index, ratio of CC50 for mouse L929 cells to IC50 for antiparasitic activity against trypomastigote and amastigote form of Trypanosoma cruzi Tulahuen expressing Escherichia coli beta-galactosidase infected in mouse L929 cells; assay type: toxicity; details: read-out: Selectivity Index
[4] = Acute toxicity in male Swiss-Webster mouse infected with Trypanosoma cruzi Y assessed as mortality at 5 to 200 mg/kg, po measured after 48 hrs; assay type: organism-based; details: in vivo, dose 5-200 mg/kg
[5] = Acute toxicity in male Swiss-Webster mouse infected with Trypanosoma cruzi Y assessed as side effects at 5 to 200 mg/kg, po measured after 48 hrs; assay type: organism-based; details: in vivo, dose 5-200 mg/kg
[6] = Acute toxicity in female Swiss-Webster mouse infected with Trypanosoma cruzi Y assessed as mortality at 5 to 200 mg/kg, po measured after 48 hrs; assay type: organism-based; details: in vivo, dose 5-200 mg/kg
[7] = Acute toxicity in female Swiss-Webster mouse infected with Trypanosoma cruzi Y assessed as side effects at 5 to 200 mg/kg, po measured after 48 hrs; assay type: organism-based; details: in vivo, dose 5-200 mg/kg
Trypanosoma cruzi [8] = assay: Antiparasitic activity against Trypanosoma cruzi Y trypomastigotes infected in male Swiss mouse assessed as reduction in parasitemia at 100 mg/kg/day, po pre-infected with parasite followed by compound addition and measured at 1 to 5 days post-infection by microscopic analysis; assay type: functional, organism-based; details: time 1-5 day
[9] = Toxicity in male Swiss mouse infected with Trypanosoma cruzi Y trypomastigotes assessed as mortality at 100 mg/kg/day, po pre-infected with parasite followed by compound addition and measured after 5 to 9 days relative to control; assay type: organism-based; details: in vivo, time 5-9 day; for Activity: po, 100 mg/kg
Trypanosoma cruzi [10] = assay: as §1, with “amastigote” for “trypomastigote”; assay type: functional, organism-based
Trypanosoma cruzi [11] = assay: Antitrypanosomal activity against trypomastigote form of Trypanosoma cruzi Y assessed as induction of apoptosis at 1 times IC50 by measuring early apoptosis incubated for 24 hrs by Annexin V-FITC/7-AAD staining based flow cytometric analysis relative to control; assay type: functional
Trypanosoma cruzi [12] = assay: Antitrypanosomal activity against trypomastigote form of Trypanosoma cruzi Y assessed as induction of apoptosis at 2 times IC50 by measuring late apoptotic cells incubated for 24 hrs by Annexin V-FITC/7-AAD staining based flow cytometric analysis relative to control; assay type: functional
Trypanosoma cruzi [13] = assay: Antitrypanosomal activity against trypomastigote form of Trypanosoma cruzi Y assessed as induction of apoptosis at 2 times IC50 by measuring necrotic cells incubated for 24 hrs by Annexin V-FITC/7-AAD staining based flow cytometric analysis relative to control; assay type: functional
Trypanosoma cruzi [14] = assay: Antitrypanosomal activity against trypomastigote form of Trypanosoma cruzi Y assessed as induction of apoptosis at 2 times IC50 by measuring early apoptosis incubated for 24 hrs by Annexin V-FITC/7-AAD staining based flow cytometric analysis relative to control; assay type: functional
Mitochondrial membrane [15] = assay: Induction of mitochondrial membrane hyperpolarization in trypomastigote form of Trypanosoma cruzi Y at IC50 incubated for 24 hrs by Rhodamine 123 staining based flow cytometric analysis; assay type: cell membranes
Cell membrane = assay: Induction of cell membrane damage in trypomastigote form of Trypanosoma cruzi Y assessed as decrease in red fluorescence intensity incubated for 24 hrs by acridine orange staining based flow cytometric analysis; assay type: subcellular
Trypanosoma cruzi [16] = assay: Antiparasitic activity against trypomastigote form of Trypanosoma cruzi Y assessed as appearance of twisted bodies by Electron micrographic analysis; assay type: functional, organism-based
Trypanosoma cruzi [17] = assay: Antiparasitic activity against trypomastigote form of Trypanosoma cruzi Y assessed as presence of bubbles by Electron micrographic analysis; assay type: functional, organism-based
Trypanosoma cruzi [18] = assay: Antiparasitic activity against trypomastigote form of Trypanosoma cruzi Y assessed as appearance of filamentous structures scattered across the membrane by Electron micrographic analysis; assay type: functional, organism-based
Trypanosoma cruzi [19] = assay: Antiparasitic activity against trypomastigote form of Trypanosoma cruzi Y assessed as appearance of swollen cells with cytoplasmic content leakage by Electron micrographic analysis; assay type: functional, organism-based
Trypanosoma cruzi [20] = assay: Antiparasitic activity against trypomastigote form of Trypanosoma cruzi Y assessed as appearance of ruptured cells with cytoplasmic content leakage by Electron micrographic analysis; assay type: functional, organism-based
RAW264.7 [21] = assay: Immunomodulatory activity in mouse RAW264.7 cells assessed as nitric oxide formation at 1 to 4 times IC50 incubated for 72 hrs by Griess reagent based Spectrophotometric analysis; assay type: functional, cell-based
RAW264.7 [22] = assay: Immunomodulatory activity in mouse RAW264.7 cells assessed as increase in IL-6 production at 1 to 4 times IC50 incubated for 24 to 144 hrs by flow cytometric analysis; assay type: functional, cell-based; details: time 24-144 hrs
RAW264.7 [23] = assay: Immunomodulatory activity in mouse RAW264.7 cells assessed as decrease in IL-10 production at 1 to 4 times IC50 incubated for 24 to 144 hrs by flow cytometric analysis; assay type: functional, cell-based; details: time 24-144 hrs
RAW264.7 [24] = assay: Immunomodulatory activity in mouse RAW264.7 cells assessed as decrease in TNF production at 1 to 4 times IC50 incubated for 24 to 144 hrs by flow cytometric analysis; assay type: functional, cell-based; details: time 24-144 hrs
Leishmania amazonensis [25] = assay: (§2) Antiparasitic activity against Leishmania amazonensis WHOM/00 LTB 0016 promastigote expressing Escherichia coli beta-galactosidase assessed as reduction in parasitic growth using CPRG as substrate preincubated with compound for 72 hrs followed by substrate addition and measured after 10 mins by Spectrophotometric analysis; assay type: functional, organism-based
Leishmania infantum [26] = assay: as §2, with “infantum MHOM/MA/67/ITMAP-263” for “amazonensis WHOM/00 LTB 0016”; assay type: functional, organism-based
Leishmania amazonensis [27] = assay: as §2, with “amastigote” for “WHOM/00 LTB 0016 promastigote”, “beta-galactosidase infected in mouse RAW264.7 cells” for “beta-galactosidase”, “24” for “72”, “2 to 6 hrs” for “10 mins”; assay type: functional, organism-based
Leishmania infantum [28] = assay: Antiparasitic activity against Leishmania infantum amastigote expressing Escherichia coli beta-galactosidase infected in mouse RAW264.7 cells assessed as reduction in parasitic growth using CPRG as substrate preincubated with compound for 24 hrs followed by substrate addition and measured after 2 to 6 hrs by Spectrophotometric analysis; assay type: functional, organism-based; details: Leishmania infantum, RAW264.7; read-out: IC50
[29] = Cytotoxicity against mouse RAW264.7 cells assessed as inhibition of cell viability incubated for 48 hrs by MTT assay; assay type: toxicity, cell-based
[30] = Selectivity index, ratio of CC50 for mouse RAW264.7 cells to IC50 for antiparasitic activity against Leishmania infantum MHOM/MA/67/ITMAP-263 promastigote expressing Escherichia coli beta-galactosidase; assay type: toxicity; details: read-out: Selectivity Index
[31] = Selectivity index, ratio of CC50 for mouse RAW264.7 cells to IC50 for antiparasitic activity against Leishmania infantum amastigote expressing Escherichia coli beta-galactosidase infected in mouse RAW264.7 cells; assay type: toxicity; details: read-out: Selectivity Index
[32] = Selectivity index, ratio of CC50 for mouse RAW264.7 cells to IC50 for antiparasitic activity against Leishmania amazonensis WHOM/00 LTB 0016 promastigote expressing Escherichia coli beta-galactosidase; assay type: toxicity; details: read-out: Selectivity Index
[33] = Selectivity index, ratio of CC50 for mouse RAW264.7 cells to IC50 for antiparasitic activity against Leishmania amazonensis amastigote expressing Escherichia coli beta-galactosidase infected in mouse RAW264.7 cells; assay type: toxicity; details: read-out: Selectivity Index
Trypanosoma cruzi [34] = assay: Antiparasitic activity against trypomastigote form of Trypanosoma cruzi Y assessed as appearance of membrane rupture by Electron micrographic analysis; assay type: functional, organism-based
Mitochondrial membrane [35] = assay: Induction of mitochondrial membrane depolarization in trypomastigote form of Trypanosoma cruzi Y at IC50 incubated for 24 hrs by Rhodamine 123 staining based flow cytometric analysis; assay type: cell membranes
[36] = Leishmania amazonensis, WHOM/00 LTB 0016, read-out: IC50
[37] = Leishmania infantum, MHOM/MA/67/ITMAP-263, read-out: IC50
[38] = Leishmania amazonensis, RAW264.7, read-out: IC50

| Structure (SMILES) | IC50 (Trypanosoma cruzi [1]) [µM] | CC50 at 96 h [2] [µM] | selectivity ratio [3] | Activity [4] | Activity [5] | Activity [6] | Activity [7] | Activity (Trypanosoma cruzi [8]) | Activity [9] | IC50 (Trypanosoma cruzi [10]) [µM] | Activity (Cell membrane) | Activity (Trypanosoma cruzi [16]) | Activity (Trypanosoma cruzi [17]) | Activity (Trypanosoma cruzi [18]) | Activity (Trypanosoma cruzi [19]) | Activity (Trypanosoma cruzi [20]) | Activity (RAW264.7 [22]) | Activity (RAW264.7 [23]) | Activity (RAW264.7 [24]) | IC50 (Leishmania infantum [28]) [µM] | other results |
| --- | --- | --- | --- | --- | --- | --- | --- | --- | --- | --- | --- | --- | --- | --- | --- | --- | --- | --- | --- | --- | --- |
| C/C(=N\N=c1\scc(-c2ccccc2)n1C)c1cccnc1 | 0.3 | 3.5 | 11.7 | Non-toxic | Non-toxic | Non-toxic | Non-toxic | inactive | Toxic | 0.3 | Dose-dependent-effect | Dose-dependent-effect | Dose-dependent-effect | Dose-dependent-effect | Dose-dependent-effect | Dose-dependent-effect | Active | Active | Active | 8.4 | Activity (Trypanosoma cruzi [11]): 29.4%; Activity (Trypanosoma cruzi [12]): 3.04%; Activity (Trypanosoma cruzi [13]): 2.36%; Activity (Trypanosoma cruzi [14]): 61.6%; Activity (Mitochondrial membrane [15]): Active; Activity (RAW264.7 [21]): Active; IC50 (Leishmania amazonensis [25]; [36]): 7.1 µM; IC50 (Leishmania infantum [26]; [37]): 5.2 µM; IC50 (Leishmania amazonensis [27]; [38]): 9.4 µM; CC50 at 48 h [29]: 5.5 µM; selectivity ratio [30]: 1.1; selectivity ratio [31]: 0.7; selectivity ratio [32]: 0.8; selectivity ratio [33]: 0.6 |
| O=C(Cn1ccnc1[N+](=O)[O-])NCc1ccccc1 [BENZNIDAZOLE] | 4.2 | 2070 | 494 | – | – | – | – | Active | – | 4.2 | – | Active | – | – | – | – | Active | Active | – | – | mortality ([9]; male, Swiss, read-out: Activity): 100%; Activity (Trypanosoma cruzi [34]): Active |
| COc1ccc(-c2cs/c(=N/N=C(\C)c3cccnc3)[nH]2)cc1 | 0.3 | 19.4 | 64.7 | Non-toxic | Non-toxic | Non-toxic | Non-toxic | inactive | Toxic | 0.3 | Dose-dependent-effect | Dose-dependent-effect | Dose-dependent-effect | Dose-dependent-effect | Dose-dependent-effect | Dose-dependent-effect | Active | Active | inactive | 92.6 | Activity (Mitochondrial membrane [35]): Active; IC50 (Leishmania amazonensis [25]): Not_active; IC50 (Leishmania infantum [26]; [37]): 174 µM; IC50 (Leishmania amazonensis [27]; [38]): 7.7 µM; CC50 at 48 h [29]: 16.6 µM; selectivity ratio [30]: 0.1; selectivity ratio [31]: 0.2; selectivity ratio [33]: 2.2 |
| C/C(=N\Nc1nc(-c2cccc([N+](=O)[O-])c2)cs1)c1cccnc1 | 0.4 | 114 | 284 | Non-toxic | Non-toxic | Non-toxic | Non-toxic | inactive | Toxic | 0.4 | Dose-dependent-effect | – | Dose-dependent-effect | Dose-dependent-effect | Dose-dependent-effect | Dose-dependent-effect | Active | Active | inactive | 93.8 | Activity (Trypanosoma cruzi [11]): 29.2%; Activity (Trypanosoma cruzi [12]): 9.39%; Activity (Trypanosoma cruzi [13]): 2.31%; Activity (Trypanosoma cruzi [14]): 7.55%; Activity (Mitochondrial membrane [15]): Active; Activity (RAW264.7 [21]): Active; IC50 (Leishmania amazonensis [25]): Not_active; IC50 (Leishmania infantum [26]): Not_active; IC50 (Leishmania amazonensis [27]; raw264.7): Not_active; CC50 at 48 h [29]: 35.3 µM; selectivity ratio [31]: 0.4 |
| C/C(=N\Nc1nc(-c2ccccc2)cs1)c1cccnc1 | 0.4 | 212 | 531 | Non-toxic | Non-toxic | Non-toxic | Non-toxic | inactive | Toxic | 0.4 | Dose-dependent-effect | Dose-dependent-effect | Dose-dependent-effect | Dose-dependent-effect | Dose-dependent-effect | Dose-dependent-effect | Active | Active | Active | 103 | Activity (Mitochondrial membrane [35]): Active; IC50 (Leishmania amazonensis [25]; [36]): 128 µM; IC50 (Leishmania infantum [26]; [37]): 5.4 µM; IC50 (Leishmania amazonensis [27]; [38]): 9.9 µM; CC50 at 48 h [29]: 18.3 µM; selectivity ratio [30]: 3.4; selectivity ratio [31]: 0.2; selectivity ratio [32]: 0.1; selectivity ratio [33]: 1.9 |
